In assay [1] the test system is mice mesenteric arteries. As to the kind of experiment: Vascular reactivity of phenylephrine-precontracted mice mesenteric arteries. The format is cell-based. The note with it: for direct dose-dependent vasorelaxation compared with Healthberry 865 / vasorelaxation reached: single anthocyanins; for direct dose-dependent vasorelaxation compared with Healthberry 865: 1-100 μg/mL; for vasorelaxation reached: dose-response curves 1-100 μg/mL. How it is done:
Aorta, carotid, femoral arteries and second-order branches of the mesenteric arterial tree were removed from mice to perform vascular studies. […] First, an analysis of vascular reactivity curves was performed. In particular, vasoconstriction was assessed with 80 mmol/L of KCI or with increasing doses of phenylephrine (from 10^-9 M to 10^-6 M) in control conditions. […] Caution was taken to avoid endothelial damage; functional integrity was reflected by the response to acetylcholine (from 10^-9 M to 10^-6 M).

Assay [2] relates to mice mesenteric arteries. As to the kind of experiment: Evaluation of NO production by DAF-FM in mice mesenteric arteries. The format is cell-based. To be noted: single anthocyanins 50 μg/mL. The protocol: Production of NO was assessed as previously described (Carrizzo et al. 2016). […] Mesenteric segments were cut in 5-μm thick sections, observed under a fluorescence microscope, subsequently counterstained with haematoxylin and eosin and observed under a light microscope.
Scale bar, 50 μm. E) Semiquantitative analyses of immunoblots of mice mesenteric arteries treated with HB (100 μg/mL) alone, or HB plus Akt inhibitor or LY294002, columns are the mean±SEM of three independent experiments. Statistical analyses were performed using two-way ANOVA followed Bonferroni post-hoc test. *p<0.05; **p<0.01, ***p<0.001.

Assay [3] concerns mice mesenteric arteries. As to the kind of experiment: Total ROS production by dihydroethidium (DHE) in Angiotensin II-stimulated mice mesenteric arteries. Type of assay: cell-based. The note with it: pre-treatment 50 μg/mL for 1 hour, then Angiotensin II for 15 minutes.
Method: (§1) Dihydroethidium (DHE, Life Technologies) was used to evaluate production of reactive oxygen species (ROS) in mouse mesenteric arteries, as previously described. Briefly, vessels were incubated with 5 μM of DHE for 20 min and subsequently observed under a fluorescence microscope (Zeiss). Images were acquired by a digital camera system (Olympus Soft Imaging Solutions). […] After treatment, vessels were incubated with Krebs solution containing 5 μM DHR123 for 30 min at 37° C., and then washed two times with PBS prior to fluorescence measurement using a fluorescence microplate reader (TECAN infinite 200 Pro).
In assay [4] the test system is mice mesenteric arteries. As to the kind of experiment: Total ROS production by Dihydrorhodamine 123 (DHR123) in mouse vessels. Type of assay: cell-based. To be noted: vessels stimulated with Angiotensin II.
Method: as §1
Assay [5] concerns NADPH oxidase. Description: NADPH oxidase activity, lucigenin-enhanced chemiluminescence assay in mesenteric arteries. The format is cell-based, mice. To be noted: after stimulation with Angiotensin II. How it is done: Vessels were homogenized in a buffer containing protease inhibitors (mmol/L: 20 monobasic potassium phosphate, 1 EGTA, 0.01 aprotinin, 0.01 leupeptin, 0.01 pepstatin, 0.5 phenylmethylsulfonyl fluoride, pH 7.0). Protein content was measured in an aliquot of the homogenate by Bradford method. In some experiments, cells and vessels were pre-incubated with pharmacological inhibitors before measurements. The reaction was started by the addition of NADPH (0.1 mmol/l) and lucigenin (5 μmol/l) to each well. The chemiluminescence was measured using Tecan Infinite Pro M200 multimode microplate at 37° C.
Vessels were pre-treated with single anthocyanins (50 μg/mL) for 1 hours and then stimulated with Angiotensin II for 15 minutes prior to the acquisition. […] Data are expressed as increase of chemiluminescence per minute.

Entries after “also recorded” stand apart in the source; their conditions may differ.

In the case of `COc1cc(-c2[o+]c3cc(O)cc(O)c3cc2O[C@@H]2O[C@H](CO)[C@@H](O)[C@H](O)[C@H]2O)cc(O)c1O` [PT3-glu, Petunidin-3-glucoside], the “direct dose-dependent vasorelaxation compared with Healthberry 865” value in assay [1] is listed as “none of the single anthocyanins was able to evoke a dose-dependent vasorelaxation comparable”.

For `OC[C@H]1O[C@@H](Oc2cc3c(O)cc(O)cc3[o+]c2-c2cc(O)c(O)c(O)c2)[C@H](O)[C@@H](O)[C@H]1O` [DP3-gal, Delphinidin-3-galactoside], in assay [1], the “direct dose-dependent vasorelaxation compared with Healthberry 865” value was “none of the single anthocyanins was able to evoke a dose-dependent vasorelaxation comparable; also recorded: vasorelaxant effects evoked by DP3-gal, C3-rut and DP3-ara were observed”; the vasorelaxation reached result was “about 32,5%”.

In the case of `OC[C@H]1O[C@@H](Oc2cc3c(O)cc(O)cc3[o+]c2-c2ccc(O)c(O)c2)[C@H](O)[C@@H](O)[C@H]1O` [C3-gal, Cyanidin-3-galactoside], the “vasorelaxant effect in presence of Akt inhibitor” value in assay [1] (increasing doses, Akt inhibitor) was “did not inhibit C3-gal vascular action”. Further, the “vasorelaxant effect in presence of PI3K inhibitor LY294002” value in assay [1] (increasing doses, pre-treatment with LY294002) was “did not inhibit C3-gal vascular action”. Besides, the “vasorelaxant effect in presence of L-NAME” value in assay [1] (increasing doses, pre-treatment with eNOS inhibitor L-NAME) was “significantly reduced its vasorelaxant properties”. Further, the “vasorelaxant effect in presence of Dorsomorphin” value in assay [1] (increasing doses, selective AMPK inhibitor Dorsomorphin) is on record as “completely lost its vasorelaxant capability”. Further, the “direct dose-dependent vasorelaxation compared with Healthberry 865” value in assay [1] is “very similar to that induced by Healthberry 865®”. Further, the “nitric oxide production (DAF-FM fluorescence)” value in assay [2] is given as “significant increase of nitric oxide production”.

`COc1cc(-c2[o+]c3cc(O)cc(O)c3cc2O[C@@H]2O[C@H](CO)[C@H](O)[C@H](O)[C@H]2O)cc(OC)c1O` [MAL3-gal, Malvidin-3-galactoside]: the “direct dose-dependent vasorelaxation compared with Healthberry 865” value in assay [1] is “none of the single anthocyanins was able to evoke a dose-dependent vasorelaxation comparable”. For the same compound, in assay [3], the “Angiotensin II-induced ROS formation (DHE)” value is “able to reproduce the antioxidant action of Healthberry 865®”. In assay [4], the “total ROS production (DHR123)” value is on record as “a similar effect was reproduced”. Further, the “NADPH oxidase (NOX) activity” value in assay [5] is reported as “able to reduce NOX activity”.

For the compound `OC[C@H]1O[C@@H](Oc2cc3c(O)cc(O)cc3[o+]c2-c2ccc(O)c(O)c2)[C@H](O)[C@@H](O)[C@@H]1O` [C3-glu, Cyanidin-3-glucoside], in assay [1], the “direct dose-dependent vasorelaxation compared with Healthberry 865” value was “none of the single anthocyanins was able to evoke a dose-dependent vasorelaxation comparable”. For the same compound, the “Angiotensin II-induced ROS formation (DHE)” value in assay [3] is recorded as “able to reproduce the antioxidant action of Healthberry 865®”. Moreover, in assay [4], the “total ROS production (DHR123)” value is “a similar effect was reproduced”. In assay [5], the “NADPH oxidase (NOX) activity” value was “able to reduce NOX activity; also recorded: most powerful anthocyanins closer to the potent effect of Healthberry 865®”.

For `Oc1cc(O)c2cc(O[C@H]3OC[C@H](O)[C@H](O)[C@H]3O)c(-c3cc(O)c(O)c(O)c3)[o+]c2c1` [DP3-ara, Delphinidin-3-arabinoside], the “direct dose-dependent vasorelaxation compared with Healthberry 865” value in assay [1] was “none of the single anthocyanins was able to evoke a dose-dependent vasorelaxation comparable; also recorded: vasorelaxant effects evoked by DP3-gal, C3-rut and DP3-ara were observed”.

As to Peonidin-3-galactoside [PEO3-gal], the “direct dose-dependent vasorelaxation compared with Healthberry 865” value in assay [1] was “none of the single anthocyanins was able to evoke a dose-dependent vasorelaxation comparable”. Moreover, in assay [3], the “Angiotensin II-induced ROS formation (DHE)” value was “able to reproduce the antioxidant action of Healthberry 865®”. Further, the “total ROS production (DHR123)” value in assay [4] was “a similar effect was reproduced”. The “NADPH oxidase (NOX) activity” value in assay [5] is reported as “able to reduce NOX activity”.

As to `COc1cc(-c2[o+]c3cc(O)cc(O)c3cc2O[C@@H]2O[C@H](CO)[C@@H](O)[C@H](O)[C@H]2O)cc(OC)c1O` [MAL3-glu, Malvidin-3-glucoside], in assay [1], the “direct dose-dependent vasorelaxation compared with Healthberry 865” value is listed as “none of the single anthocyanins was able to evoke a dose-dependent vasorelaxation comparable”. The “Angiotensin II-induced ROS formation (DHE)” value in assay [3] is reported as “able to reproduce the antioxidant action of Healthberry 865®”. Besides, the “total ROS production (DHR123)” value in assay [4] is “a similar effect was reproduced”. In addition, in assay [5], the “NADPH oxidase (NOX) activity” value is “able to reduce NOX activity; also recorded: most powerful anthocyanins closer to the potent effect of Healthberry 865®”.

In the case of `C[C@@H]1O[C@@H](OC[C@H]2O[C@@H](Oc3cc4c(O)cc(O)cc4[o+]c3-c3ccc(O)c(O)c3)[C@H](O)[C@@H](O)[C@@H]2O)[C@H](O)[C@H](O)[C@H]1O` [C3-rut, Cyanidin-3-rutinoside], in assay [1], the “direct dose-dependent vasorelaxation compared with Healthberry 865” value was “none of the single anthocyanins was able to evoke a dose-dependent vasorelaxation comparable; also recorded: vasorelaxant effects evoked by DP3-gal, C3-rut and DP3-ara were observed”; the vasorelaxation reached is given as ~36,5%. The “Angiotensin II-induced ROS formation (DHE)” value in assay [3] is listed as “able to reproduce the antioxidant action of Healthberry 865®”. In addition, the “total ROS production (DHR123)” value in assay [4] is “a similar effect was reproduced”. The “NADPH oxidase (NOX) activity” value in assay [5] is listed as “able to reduce NOX activity”.

With `OC[C@H]1O[C@@H](Oc2cc3c(O)cc(O)cc3[o+]c2-c2cc(O)c(O)c(O)c2)[C@H](O)[C@@H](O)[C@@H]1O` [DP3-glu, Delphinidin-3-glucoside], in assay [1], the “direct dose-dependent vasorelaxation compared with Healthberry 865” value was “none of the single anthocyanins was able to evoke a dose-dependent vasorelaxation comparable”. Besides, in assay [3], the “Angiotensin II-induced ROS formation (DHE)” value is reported as “able to reproduce the antioxidant action of Healthberry 865®”. In addition, the “total ROS production (DHR123)” value in assay [4] was “a similar effect was reproduced”. The “NADPH oxidase (NOX) activity” value in assay [5] is listed as “able to reduce NOX activity”.
